# Test results reported in publication PMC6478823, “A suite of phenotypic assays to ensure pipeline diversity when prioritizing drug-like Cryptosporidium growth inhibitors” (Nature Communications, 2019).
# Read-outs that look alike come from different tables or passages of the source.
# Assays:
# C. parvum [1] = assay: Egress, motility, reinvasion assay (PV ratio); settings: compound at EC90; for Egress and Reinvasion Assay: Mean PV ratios (19.5h:6h), Average: average of replicates; for Egress and Reinvasion Assay: Mean PV ratios (19.5h:6h), Replicate 1a: single replicate 1; for Egress and Reinvasion Assay: Mean PV ratios (19.5h:6h), Replicate 2a: single replicate 2; for Egress and Reinvasion Assay: Mean PV ratios (19.5h:6h), Replicate 3a: single replicate 3; for Egress and Reinvasion Assay: Mean PV ratios (19.5h:6h), Replicate 4a: single replicate 4
# Method: For quantification of parasitophorous vacuoles over time, HCT-8 cells were grown to greater than 90% confluence in 384-well plates and infected with 11,000 oocysts after triggering excystation.
# C. parvum [2] = assay: DNA replication assay (EdU incorporation); type: cell-based, Cryptosporidium parvum; settings: compound at EC90; for DNA Synthesis Assay: Mean % Inhibition of EdU-labeling (normalized to parasite numbers), Average: average of replicates; for DNA Synthesis Assay: Mean % Inhibition of EdU-labeling (normalized to parasite numbers), Replicate 1: single replicate 1; for DNA Synthesis Assay: Mean % Inhibition of EdU-labeling (normalized to parasite numbers), Replicate 2: single replicate 2; for DNA Synthesis Assay: Mean % Inhibition of EdU-labeling (normalized to parasite numbers), Replicate 3: single replicate 3; for DNA Synthesis Assay: Mean % Inhibition of EdU-labeling (normalized to parasite numbers), Replicate 4: single replicate 4; for DNA synthesis: yes/no grouping by phenotypic assay result
# From the text: Following cell invasion, Cryptosporidium trophozoites grow and multiply to give rise to multinucleated type I meronts (Fig. 3a). The thymidine analog 5-ethynyl-2′-deoxyuridine (EdU) is efficiently incorporated into newly synthesized DNA, and can be detected using click chemistry. We used EdU to measure parasite intracellular DNA replication, as a surrogate for the more complex phenotype of intracellular growth and division. The approach for differentially labeling newly synthesized parasite DNA compared to host cell DNA was to take advantage of the fact that C. parvum replicates more quickly than the nearly confluent host cells. Thus, by adding EdU shortly before egress, it was possible to preferentially label replicating parasites (Fig. 3b, c). DNA staining with Hoechst labeled all of the host and parasite DNA, making it challenging to visualize and quantify parasite DNA. A simple DNA stain would also not distinguish pre-existing DNA from newly synthesized DNA (Fig. 3c). In contrast, EdU labeling only occurred with incorporation into newly synthesized DNA. Incorporated EdU was then easily stained for immunofluorescence and labeled parasites were quantified using high-content microscopy and an NIH ImageJ macro (Fig. 3c, DMSO condition). The […] hydroxyurea (10 mM), a known inhibitor of DNA replication, was used as a positive control for assay validation. […] Compounds with activity in this assay cannot be concluded to specifically target DNA replication, which is a complex phenotype.
# Confluent HCT-8 cell monolayers in glass bottom plates were infected with C. parvum, and compounds were added at EC90 following invasion. At 9 h post-infection, 10 µM EdU was added, followed by incubation for another 2 h, and then washing, fixing, and staining for microscopy. […] 40 × dry objective (NA = 0.7); scale = 5 µm. Arrows indicate selected parasites with EdU-labeled DNA. d Quantification of EdU incorporation. […] Data are mean and SD of 2–5 biological replicates.
# After incubation of cells with EdU for 2 h, cells were washed 3 times with PBS-D-gal and then fixed with PBS containing 4% PFA. Cells were then permeabilized and stained for EdU using the Click-iT® assay kit (Thermo Fisher Scientific, catalog# C10340) as per the manufacturer’s instructions. Cells were then imaged by focusing on parasites (note that the host cell nuclei are in a different focal plane) using a 40 × dry objective (0.7 NA) and EdU, and lectin numbers quantified using ImageJ software and the custom macro in Supplementary Method 1.
# C. parvum [3] = type: cell-based, Cryptosporidium parvum; settings: compound at EC90; for Invasion Assay: Mean % Inhibition (parasites), Average: average of replicates; for Invasion Assay: Mean % Inhibition (parasites), Replicate 1a: single biological replicate 1; for Invasion Assay: Mean % Inhibition (parasites), Replicate 2a: single biological replicate 2; for Sporozoite invasion: yes/no grouping by phenotypic assay result; for effect on host cell invasion / parasitophorous vacuole formation: result in words
# Method: The first step in infection is host cell invasion, which involves a complex process encompassing oocyst excystation, parasite motility, adhesion, and parasitophorous vacuole formation (Fig. 2a). Our strategy to assay for compounds affecting invasion was simply to expose C. parvum to compounds immediately after triggering excystation and throughout the invasion process, and then enumerate the parasite vacuoles after 3 h, prior to allowing the parasites to replicate (summarized in Fig. 2b).
# Fig. 2 Invasion Assay. a Overview of life cycle stage investigated during the invasion assay. Representative TEM images of a C. parvum oocyst and HCT-8 cell shortly after infection (Scale bar = 500 nm). b Schematic of experimental design. […] Each point represents the mean and SD of at least two biological replicates with four technical replicates per experiment.
# C. parvum invasion inhibition was measured by modifying the 48 h growth inhibition assay described above. […] In parallel, Iowa strain oocysts were excysted. […] Assay plates were incubated at 37 °C and 5% CO2 for 3 h.
SMILES,"Egress and Reinvasion Assay: Mean PV ratios (19.5h:6h), Average (C. parvum [1])","Egress and Reinvasion Assay: Mean PV ratios (19.5h:6h), Replicate 1a (C. parvum [1])","Egress and Reinvasion Assay: Mean PV ratios (19.5h:6h), Replicate 2a (C. parvum [1])","DNA Synthesis Assay: Mean % Inhibition of EdU-labeling (normalized to parasite numbers), Average (C. parvum [2]) [%]","DNA Synthesis Assay: Mean % Inhibition of EdU-labeling (normalized to parasite numbers), Replicate 1 (C. parvum [2]) [%]","DNA Synthesis Assay: Mean % Inhibition of EdU-labeling (normalized to parasite numbers), Replicate 2 (C. parvum [2]) [%]","DNA Synthesis Assay: Mean % Inhibition of EdU-labeling (normalized to parasite numbers), Replicate 3 (C. parvum [2]) [%]","DNA Synthesis Assay: Mean % Inhibition of EdU-labeling (normalized to parasite numbers), Replicate 4 (C. parvum [2]) [%]",DNA synthesis (C. parvum [2]),"Invasion Assay: Mean % Inhibition (parasites), Average (C. parvum [3]) [%]","Invasion Assay: Mean % Inhibition (parasites), Replicate 1a (C. parvum [3]) [%]","Invasion Assay: Mean % Inhibition (parasites), Replicate 2a (C. parvum [3]) [%]",Sporozoite invasion (C. parvum [3]),also measured
O=C(NC(c1ccccc1)c1ccc2cccnc2c1O)c1ccccc1 (centres unmarked) [A-5],0.32,0.55,0.10,99.95,100.00,100.00,99.80,100.00,yes,-13.46,-13,-14,no,–
c1ccc(CNc2nc(NCc3ccccc3)c3ccccc3n2)cc1 [B-23],1.55,1.73,1.36,1.59,-16.14,17.17,3.74,–,no,83.80,84,83,yes,–
c1ccc(CNc2nc(NC3CCCC3)nc3ccccc23)cc1 [B-5],1.49,1.74,1.24,-9.25,-17.04,19.85,-30.57,–,no,82.99,81,85,yes,–
CCC(C)n1ncn(-c2ccc(N3CCN(c4ccc(OCC5COC(Cn6cncn6)(c6ccc(Cl)cc6Cl)O5)cc4)CC3)cc2)c1=O (centres unmarked) [Itraconazole],1.77,2.21,1.33,-4.89,6.01,-18.49,-2.19,–,–,-29.72,-31,-28,–,–
CN(C)C[C@H](O)Cn1c2ccc(Br)cc2c2cc(Br)ccc21 (racemic) [Wiskostatin],1.04,1.34,0.98,36.39,67.16,42.34,31.25,4.83,–,88.58,90,92,–,"Egress and Reinvasion Assay: Mean PV ratios (19.5h:6h), Replicate 3a (C. parvum [1]): 0.80; Egress and Reinvasion Assay: Mean PV ratios (19.5h:6h), Replicate 4a (C. parvum [1]): 1.04; effect on C. parvum DNA replication / EdU incorporation (C. parvum [2]; result in words): active; effect on host cell invasion / parasitophorous vacuole formation (C. parvum [3]): inhibited parasitophorous vacuole formation; effect on host cell invasion / parasitophorous vacuole formation (C. parvum [3]; listed as wiskostatin): active; Invasion Assay: Mean % Inhibition (parasites), Replicate 3a (C. parvum [3]; single biological replicate 3): 82%; Invasion Assay: Mean % Inhibition (parasites), Replicate 4a (C. parvum [3]; single biological replicate 4): 90%"
Cc1cccc(-n2ncc3c(=O)[nH]c(-n4nc(C)cc4NC(=O)C4CC4)nc32)c1 [C-4],0.48,0.49,0.48,99.18,98.37,100.00,–,–,–,9.11,19,-1.12,–,–
O=C(Nc1nc(-c2ccccn2)cs1)c1ccccc1Br [MMV665909],0.41,0.61,0.21,90.80,100.00,100.00,80.23,80.99,–,-12.01,-8.54,-15,–,"DNA Synthesis Assay: Mean % Inhibition of EdU-labeling (normalized to parasite numbers), Replicate 5 (C. parvum [2]; single replicate 5): 92.80%"
Cc1cccc(-n2ncc3c(=O)[nH]c(-n4nc(C)cc4NC(=O)C4CCCC4)nc32)c1 [C-5],0.31,0.20,0.42,98.17,96.33,100.00,–,–,–,13.07,31,-4.39,–,–
O=C(CC1NCCCC1O)Cn1cnc2cc(Br)c(Cl)cc2c1=O (centres unmarked) [Halofuginone],0.69,0.76,1.01,88.20,85.31,91.09,–,–,–,6.92,11,2.47,–,"Egress and Reinvasion Assay: Mean PV ratios (19.5h:6h), Replicate 3a (C. parvum [1]): 0.53; Egress and Reinvasion Assay: Mean PV ratios (19.5h:6h), Replicate 4a (C. parvum [1]): 0.46"
CN(C)c1ccc(C(=C2C=CC(=[N+](C)C)C=C2)c2ccc(N(C)C)cc2)cc1 [Gentian Violet],1.37,1.01,1.73,47.40,62.13,74.23,5.82,–,–,-6.62,-1.27,-12,–,–
